Values joined by “and” are separate entries in the source; they are usually repeats but may differ in a detail not shown here. Equal values may be shown once. Inconclusive results and toxic doses are left out.
Test system: P388 leukemia ip, CD2F1 mice, survival T/C
Assay: NCI In Vivo Anticancer Drug Screen. Data for tumor model P388 Leukemia (intraperitoneal) in CD2F1 (CDF1) mice
Settings: endpoint: median survival time, higher = longer survival
Method in brief: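 Mice carrying the transplanted tumor received test compound or vehicle. Survival was recorded in each group, and the value is the treated-group measurement divided by that of the vehicle-treated control group.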

[1] = dose: 50.0 mg/kg/injection, schedule: Q01DX009 (ip), vehicle: Klucel (hydroxypropylcellulose) (HPC)
[2] = dose: 100.0 mg/kg/injection, schedule: Q01DX009 (ip), vehicle: Klucel (hydroxypropylcellulose) (HPC)
[3] = dose: 100.0 mg/kg/injection, schedule: Q01DX009 (ip), vehicle: saline
[4] = dose: 200.0 mg/kg/injection, schedule: Q01DX009 (ip), vehicle: saline

O=C1C=C(C2=C(O)c3ccccc3C2=O)c2ccccc21 (tested in a mixture with another compound)
T/C [1]: 105 % of control | T/C [2]: 105 % of control

O=C1NC(=O)C23CCCCc4cccc(c42)C(=O)C13 (centres undefined)
T/C (dose: 25.0 mg/kg/injection, schedule: Q01DX005 (ip), vehicle: water): 100 % of control | T/C (dose: 50.0 mg/kg/injection, schedule: Q01DX005 (ip), vehicle: water): 99 % of control | T/C (dose: 100.0 mg/kg/injection, schedule: Q01DX005 (ip), vehicle: water): 103 % of control | T/C (dose: 200.0 mg/kg/injection, schedule: Q01DX005 (ip), vehicle: water): 100 % of control

C=C1CC2(CC(C)CCC2=C(C)C)OC1=O (centres undefined)
T/C (dose: 100.0 mg/kg/injection, schedule: Q01DX001 (ip), vehicle: saline): 101 % of control | T/C (dose: 200.0 mg/kg/injection, schedule: Q01DX001 (ip), vehicle: saline): 100 % of control | T/C (dose: 400.0 mg/kg/injection, schedule: Q01DX001 (ip), vehicle: saline): 101 % of control

COC1=CC(=O)C(C2OC(=O)C(Cl)=C2Cl)=CC1=O (centres undefined)
T/C (dose: 50.0 mg/kg/injection, schedule: Q01DX005 (ip), vehicle: saline with Tween-80): 114 % of control | T/C (dose: 100.0 mg/kg/injection, schedule: Q01DX005 (ip), vehicle: saline with Tween-80): 119 % of control

CN(C)CCN(C)CC(C)(C)C(=O)/C=C/c1ccc(Cl)c(Cl)c1
T/C (dose: 3.75 mg/kg/injection, schedule: Q01DX005 (ip), vehicle: saline): 102 % of control and 107 % of control | T/C (dose: 7.5 mg/kg/injection, schedule: Q01DX005 (ip), vehicle: saline): 98 % of control and 95 % of control | T/C (dose: 15.0 mg/kg/injection, schedule: Q01DX005 (ip), vehicle: saline): 99 % of control and 100 % of control and 97 % of control | T/C (dose: 30.0 mg/kg/injection, schedule: Q01DX005 (ip), vehicle: saline): 101 % of control and 102 % of control

O=C(Nc1ccc(F)cc1)NN1CCOCC1
T/C (dose: 60.0 mg/kg/injection, schedule: Q01DX005 (ip), vehicle: saline with Tween-80): 102 % of control | T/C (dose: 120.0 mg/kg/injection, schedule: Q01DX005 (ip), vehicle: saline with Tween-80): 104 % of control | T/C (dose: 240.0 mg/kg/injection, schedule: Q01DX005 (ip), vehicle: saline with Tween-80): 103 % of control

COC(=O)C1=CO[C@@H](OC2OC(CO)C(O)C(O)C2O)[C@H]2[C@@H]1C=C[C@@]2(O)CO (some centres undefined)
T/C (dose: 6.25 mg/kg/injection, schedule: Q01DX009 (ip), vehicle: Klucel (hydroxypropylcellulose) (HPC)): 100 % of control | T/C (dose: 12.5 mg/kg/injection, schedule: Q01DX009 (ip), vehicle: Klucel (hydroxypropylcellulose) (HPC)): 88 % of control | T/C (dose: 25.0 mg/kg/injection, schedule: Q01DX009 (ip), vehicle: Klucel (hydroxypropylcellulose) (HPC)): 100 % of control | T/C [1]: 99 % of control | T/C [2]: 107 % of control

CC1CCC(=O)N1C (centres undefined)
T/C [3]: 105 % of control | T/C [4]: 100 % of control | T/C (dose: 400.0 mg/kg/injection, schedule: Q01DX009 (ip), vehicle: saline): 113 % of control

Cc1ccc(NCCNCCO)c2c1C(=O)c1ccccc1C2=O
T/C (dose: 25.0 mg/kg/injection, schedule: Q01DX009 (ip), vehicle: saline): 100 % of control and 87 % of control | T/C (dose: 50.0 mg/kg/injection, schedule: Q01DX009 (ip), vehicle: saline): 99 % of control and 89 % of control | T/C (dose: 50.0 mg/kg/injection, schedule: Q01DX009 (ip), vehicle: suspension in saline): 116 % of control | T/C [3]: 101 % of control and 90 % of control | T/C (dose: 100.0 mg/kg/injection, schedule: Q01DX009 (ip), vehicle: suspension in saline): 122 % of control | T/C [4]: 87 % of control and 95 % of control | T/C (dose: 200.0 mg/kg/injection, schedule: Q01DX009 (ip), vehicle: suspension in saline): 151 % of control

CC1C2=C(CC(=O)NC2=O)C(=O)N1Cc1ccccc1 (centres undefined)
T/C [1]: 103 % of control | T/C [2]: 106 % of control | T/C (dose: 200.0 mg/kg/injection, schedule: Q01DX009 (ip), vehicle: Klucel (hydroxypropylcellulose) (HPC)): 97 % of control

COc1ccc(NC(Cc2ccccc2)=NC(C)(C)C)cc1
T/C (dose: 50.0 mg/kg/injection, schedule: Q01DX009 (ip), vehicle: saline with Tween-80): 98 % of control | T/C (dose: 100.0 mg/kg/injection, schedule: Q01DX009 (ip), vehicle: saline with Tween-80): 89 % of control | T/C (dose: 200.0 mg/kg/injection, schedule: Q01DX009 (ip), vehicle: saline with Tween-80): 94 % of control
